Results as given in US20180291335A1, “MODIFIED POLYNUCLEOTIDES FOR ALTERING CELL PHENOTYPE” (ModernaTX, Inc., priority 2012, published 2018).

Tests used:
[1] = test system: Rabbit Reticulocyte Lysate; assay: In vitro screening in rabbit reticulocyte lysates, luciferase mRNA translation; format: biochemical; conditions: 250 ng luciferase mRNA, 60 minutes, 30° C.
Protocol: The diluted luciferase was added to 40 ul of freshly prepared Rabbit Reticulocyte Lysate and the in vitro translation reaction was done in a standard 1.5 mL polypropylene reaction tube (Thermo Fisher Scientific, Waltham, Mass.) at 30° C. in a dry heating block. The translation assay was done with the Rabbit Reticulocyte Lysate (nuclease-treated) kit (Promega, Madison, Wis.) according to the manufacturer's instructions. The reaction buffer was supplemented with a one-to-one blend of provided amino acid stock solutions devoid of either Leucine or Methionine resulting in a reaction mix containing sufficient amounts of both amino acids to allow effective in vitro translation.
After 60 minutes of incubation, the reaction was stopped by placing the reaction tubes on ice. Aliquots of the in vitro translation reaction containing luciferase modified RNA were transferred to white opaque polystyrene 96-well plates (Corning, Manassas, Va.) and combined with 100 ul complete luciferase assay solution (Promega, Madison, Wis.). The volumes of the in vitro translation reactions were adjusted or diluted until no more than 2 mio relative light units (RLUs) per well were detected for the strongest signal producing samples and the RLUs for each chemistry tested are shown in Table 20. The plate reader was a BioTek Synergy H1 (BioTek, Winooski, Vt.). The background signal of the plates without reagent was about 200 relative light units per well.

HeLa cells [2] = assay: In vitro screening in HeLa cells, luciferase modified RNA; format: cell-based, human; conditions: HeLa cells, 83 ng luciferase modified RNA, 18 to 22 hours
Protocol: (§1) The day before transfection, 20,000 HeLa cells (ATCC no. CCL-2; Manassas, Va.) were harvested by treatment with Trypsin-EDTA solution (LifeTechnologies, Grand Island, N.Y.) and seeded in a total volume of 100 ul EMEM medium (supplemented with 10% FCS and 1× Glutamax) per well in a 96-well cell culture plate (Corning, Manassas, Va.). The cells were grown at […] in 5% CO2 atmosphere overnight. […] Lipofectamine 2000 (LifeTechnologies, Grand Island, N.Y.) was used as transfection reagent and 0.2 ul were diluted in 10 ul final volume of OPTI-MEM. After 5 minutes of incubation at room temperature, both solutions were combined and incubated an additional 15 minute at room temperature. Then the 20 ul combined solution was added to the 100 ul cell culture medium containing the HeLa cells and incubated at room temperature.
(§2) After 18 to 22 hours of incubation cells expressing luciferase were lysed with 100 ul of Passive Lysis Buffer (Promega, Madison, Wis.) according to manufacturer instructions. Aliquots of the lysates were transferred to white opaque polystyrene 96-well plates (Corning, Manassas, Va.) and combined with 100 ul complete luciferase assay solution (Promega, Madison, Wis.). The lysate volumes were adjusted or diluted until no more than 2 mio relative light units (RLU) per well were detected for the strongest signal producing samples and the RLUs for each chemistry tested are shown in Table 19. The plate reader was a BioTek Synergy H1 (BioTek, Winooski, Vt.). The background signal of the plates without reagent was about 200 relative light units per well.

HeLa cells [3] = assay: Luciferase in HeLa cells using a combination of modifications; format: cell-based, human; conditions: 83 ng luciferase modified RNA, 18 to 22 hours, listed as 5-methylcytidine/pseudouridine
Protocol: To evaluate using of 2′fluoro-modified mRNA in combination with other modification a series of mRNA were transcribed using either wild-type T7 polymerase (non-fluoro-containing compounds) or using mutant T7 polymerases (fluyoro-containing compounds) as described in Example 86. All modified mRNA were tested by in vitro transfection in HeLa cells.
as §1
as §2, with “26.” for “19.”

[4] = test system: tumor necrosis factor-alpha (TNF-alpha); assay: 2′Fluoro chemistries in PBMC: TNF-alpha production by ELISA; format: cell-based, human; conditions: G-CSF modified mRNA
[5] = test system: interferon-alpha (IFN-alpha); assay: 2′Fluoro chemistries in PBMC: IFN-alpha production by ELISA; format: cell-based, human; conditions: G-CSF modified mRNA
HeLa cells [6] = assay: G-CSF modified mRNA transfected in HeLa cells, G-CSF ELISA; format: cell-based, human; conditions: HeLa cells, combination chemistries, ELISA
Protocol: To assess the activity of all our different chemical modifications in the context of a second open reading frame, we replicated experiments previously conducted using luciferase mRNA, with human G-CSF mRNA. […] The mutant T7 polymerase was obtained commercially (Durascribe® T7 Transcription kit (Cat. No. DS010925) (Epicentre®, Madison, Wis.).
The modified RNA in Tables 27 and 28 were transfected in vitro in HeLa cells or added to rabbit reticulysates (250 ng of modified mRNA) as indicated. […] In Table 27, “NT” means not tested.

Q: Which RLU [1] does the source give for “5-methylcytosine/pseudouridine, test A1: Luciferase mRNA (SEQ ID NO: 409) modified with 5-methylcytosine and pseudouridine; repeated tests” here?
A: 349,398 RLU

Q: What about the RLU ([1]; test A2) of the same molecule?
A: 558,779 RLU

Q: And the RLU ([1]; test A3)?
A: 413,535 RLU

Q: And the RLU ([1]; test B1)?
A: 454,662 RLU

Q: And the RLU ([1]; test B2)?
A: 487,805 RLU

Q: And the RLU (HeLa cells [2])?
A: 48,659 RLU

Q: What about the RLU (HeLa cells [2]; test A2) of the same molecule?
A: 295,824 RLU

Q: What about the RLU (HeLa cells [2]; test A3) of the same molecule?
A: 438,831 RLU

Q: What about the RLU (HeLa cells [2]; test B1) of the same molecule?
A: 317,744 RLU

Q: What about the RLU (HeLa cells [2]; test B2) of the same molecule?
A: 481,477 RLU

Q: And the RLU (HeLa cells [3]; test A)?
A: 13,833 RLU

Q: And the RLU (HeLa cells [3]; test B)?
A: 115,401 RLU

Q: How did the “TNF-alpha: 2 Donor Average” value [4] turn out when `CCOCc1nc2c(N)nc3ccccc3c2n1CC(C)(C)O` [Compound R-848, reference compound] was run?
A: 8,235 pg/ml

Q: What about the “IFN-alpha: 3 Donor Average” value [5] of the same molecule?
A: 45 pg/mL

B1: 5-methylcytidine/5-bromouridine: G-CSF mRNA (SEQ ID NO: 408) fully modified with the named combination (nucleic acid)
chain: GGGAAAUAAGAGAGAAAAGAAGAGUAAGAAGAAAUAUAAGAGCCACCAUGGCCGGUCCCGCGACCCAAAGCCCCAUGAAACUUAUGGCCCUGCAGUUGCUGCUUUGGCACUCGGCCCUCUGGACAGUCCAAGAAGCGACUCCUCUCGGACCUGCCUCAUCGUUGCCGCAGUCAUUCCUUUUGAAGUGUCUGGAGCAGGUGCGAAAGAUUCAGGGCGAUGGAGCCGCACUCCAAGAGAAGCUCUGCGCGACAUACAAACUUUGCCAUCCCGAGGAGCUCGUACUGCUCGGGCACAGCUUGGGGAUUCCCUGGGCUCCUCUCUCGUCCUGUCCGUCGCAGGCUUUGCAGUUGGCAGGGUGCCUUUCCCAGCUCCACUCCGGUUUGUUCUUGUAUCAGGGACUGCUGCAAGCCCUUGAGGGAAUCUCGCCAGAAUUGGGCCCGACGCUGGACACGUUGCAGCUCGACGUGGCGGAUUUCGCAACAACCAUCUGGCAGCAGAUGGAGGAACUGGGGAUGGCACCCGCGCUGCAGCCCACGCAGGGGGCAAUGCCGGCCUUUGCGUCCGCGUUUCAGCGCAGGGCGGGUGGAGUCCUCGUAGCGAGCCACCUUCAAUCAUUUUUGGAAGUCUCGUACCGGGUGCUGAGACAUCUUGCGCAGCCGUGAAGCGCUGCCUUCUGCGGGGCUUGCCUUCUGGCCAUGCCCUUCUUCUCUCCCUUGCACCUGUACCUCUUGGUCUUUGAAUAAAGCCUGAGUAGGAAG
modifications: 5-methylcytidine/5-bromouridine modified; Description of Artificial Sequence: Synthetic Transcript Sequence
Q: For B1, which “TNF-alpha: 2 Donor Average” value [4] is on record?
A: 270 pg/mL

Q: What about the “G-CSF protein (pg/ml) HeLa cells” value (HeLa cells [6]) of the same molecule?
A: 48,864 pg/ml

Q: What about the “IFN-alpha: 3 Donor Average” value [5] of the same molecule?
A: 0 pg/mL

B2: N4-acetylcytidine/5-bromouridine: G-CSF mRNA (SEQ ID NO: 408) fully modified with the named combination (nucleic acid)
chain: GGGAAAUAAGAGAGAAAAGAAGAGUAAGAAGAAAUAUAAGAGCCACCAUGGCCGGUCCCGCGACCCAAAGCCCCAUGAAACUUAUGGCCCUGCAGUUGCUGCUUUGGCACUCGGCCCUCUGGACAGUCCAAGAAGCGACUCCUCUCGGACCUGCCUCAUCGUUGCCGCAGUCAUUCCUUUUGAAGUGUCUGGAGCAGGUGCGAAAGAUUCAGGGCGAUGGAGCCGCACUCCAAGAGAAGCUCUGCGCGACAUACAAACUUUGCCAUCCCGAGGAGCUCGUACUGCUCGGGCACAGCUUGGGGAUUCCCUGGGCUCCUCUCUCGUCCUGUCCGUCGCAGGCUUUGCAGUUGGCAGGGUGCCUUUCCCAGCUCCACUCCGGUUUGUUCUUGUAUCAGGGACUGCUGCAAGCCCUUGAGGGAAUCUCGCCAGAAUUGGGCCCGACGCUGGACACGUUGCAGCUCGACGUGGCGGAUUUCGCAACAACCAUCUGGCAGCAGAUGGAGGAACUGGGGAUGGCACCCGCGCUGCAGCCCACGCAGGGGGCAAUGCCGGCCUUUGCGUCCGCGUUUCAGCGCAGGGCGGGUGGAGUCCUCGUAGCGAGCCACCUUCAAUCAUUUUUGGAAGUCUCGUACCGGGUGCUGAGACAUCUUGCGCAGCCGUGAAGCGCUGCCUUCUGCGGGGCUUGCCUUCUGGCCAUGCCCUUCUUCUCUCCCUUGCACCUGUACCUCUUGGUCUUUGAAUAAAGCCUGAGUAGGAAG
modifications: N4-acetylcytidine/5-bromouridine modified; Description of Artificial Sequence: Synthetic Transcript Sequence
Q: Which results are given for B2?
A: TNF-alpha: 2 Donor Average [4]: 403 pg/mL; G-CSF protein (pg/ml) HeLa cells (HeLa cells [6]): 211,591 pg/ml; IFN-alpha: 3 Donor Average [5]: 44 pg/mL

B3: N4-acetylcytidine/2-thiouridine: G-CSF mRNA (SEQ ID NO: 408) fully modified with the named combination (nucleic acid)
chain: GGGAAAUAAGAGAGAAAAGAAGAGUAAGAAGAAAUAUAAGAGCCACCAUGGCCGGUCCCGCGACCCAAAGCCCCAUGAAACUUAUGGCCCUGCAGUUGCUGCUUUGGCACUCGGCCCUCUGGACAGUCCAAGAAGCGACUCCUCUCGGACCUGCCUCAUCGUUGCCGCAGUCAUUCCUUUUGAAGUGUCUGGAGCAGGUGCGAAAGAUUCAGGGCGAUGGAGCCGCACUCCAAGAGAAGCUCUGCGCGACAUACAAACUUUGCCAUCCCGAGGAGCUCGUACUGCUCGGGCACAGCUUGGGGAUUCCCUGGGCUCCUCUCUCGUCCUGUCCGUCGCAGGCUUUGCAGUUGGCAGGGUGCCUUUCCCAGCUCCACUCCGGUUUGUUCUUGUAUCAGGGACUGCUGCAAGCCCUUGAGGGAAUCUCGCCAGAAUUGGGCCCGACGCUGGACACGUUGCAGCUCGACGUGGCGGAUUUCGCAACAACCAUCUGGCAGCAGAUGGAGGAACUGGGGAUGGCACCCGCGCUGCAGCCCACGCAGGGGGCAAUGCCGGCCUUUGCGUCCGCGUUUCAGCGCAGGGCGGGUGGAGUCCUCGUAGCGAGCCACCUUCAAUCAUUUUUGGAAGUCUCGUACCGGGUGCUGAGACAUCUUGCGCAGCCGUGAAGCGCUGCCUUCUGCGGGGCUUGCCUUCUGGCCAUGCCCUUCUUCUCUCCCUUGCACCUGUACCUCUUGGUCUUUGAAUAAAGCCUGAGUAGGAAG
modifications: N4-acetylcytidine/2-thiouridine modified; Description of Artificial Sequence: Synthetic Transcript Sequence
Q: Which “TNF-alpha: 2 Donor Average” value [4] does the source give for B3 here?
A: 285 pg/mL

Q: What about the “G-CSF protein (pg/ml) HeLa cells” value (HeLa cells [6]) of the same molecule?
A: 46,136 pg/ml

Q: And the “IFN-alpha: 3 Donor Average” value [5]?
A: 0 pg/mL
